# Data as given in article PMC5816172 (Proceedings of the National Academy of Sciences of the …, 2018).
# Test system: NLRP3 inflammasome
# Experiment: NLRP3 inflammasome stimulation of J774A.1 macrophages
# Format: cell-based, mouse
# Settings: J774A.1 (Fig. S7B), ACHP alone
smiles,measurement,value
"N#Cc1c(C2CCNCC2)cc(-c2c(O)cccc2OCC2CC2)nc1N [ACHP, 2-Amino-6-[2-(cyclopropylmethoxy)-6-hydroxyphenyl]-4-(4-piperidinyl)-3-pyridinecarbonitrile, reference compound]",reduction of LPS/nigericin induction of IL-1β,60%
